Data as given in patent US9232796B2, “Herbicidal compositions comprising 4-amino-3-chloro-5-fluoro-6-(4-chloro-2-fluoro-3-methoxyphenyl) pyridine-2-carboxylic acid or a derivative thereof and acetyl-CoA carboxylase (ACCase) inhibitors” (DOW AGROSCIENCES LLC, priority 2012, dated 2016).

How the values were obtained:
FIMMI = assay: Example II in-water applied, greenhouse, transplanted paddy rice weeds; format: in vivo, Fimbristylis miliacea (L.) Vahl
Protocol: (§1) Weed seeds or nutlets of the desired test plant species were planted in puddled soil (mud) prepared by mixing a shredded, non-sterilized mineral soil (50.5 percent silt, 25.5 percent clay, and 24 percent sand, with a pH of about 7.6 and an organic matter content of about 2.9 percent) and water at a 1:1 volumetric ratio. The prepared mud was dispensed in 365 mL aliquots into 16-ounce (oz.) non-perforated plastic pots with a surface area of 86.59 square centimeters (cm^2) leaving a headspace of 3 centimeters (cm) in each pot. Mud was allowed to dry overnight prior to planting or transplanting. Rice seeds were planted in Sun Gro MetroMix® 306 planting mixture, which typically has a pH of 6.0 to 6.8 and an organic matter content of about 30 percent, in plastic plug trays. Seedlings at the second or third leaf stage of growth were transplanted into 860 mL of mud contained in 32-oz. non-perforated plastic pots with a surface area of 86.59 cm^2 4 days prior to herbicide application. The paddy was created by filling the headspace of the pots with 2.5 to 3 cm of water. […] The plants were grown for 4-22 days in a greenhouse with an approximate 14 hr. photoperiod which was maintained at about 29° C. during the day and 26° C. during the night. Nutrients were added as Osmocote® (19:6:12, N:P:K+minor nutrients) at 2 g per 16-oz. pot and 4 g per 32-oz. pot. Water was added on a regular basis to maintain the paddy flood, and supplemental lighting was provided with overhead metal halide 1000-Watt lamps as necessary. The plants were employed for testing when they reached the first through fourth true leaf stage.
(§2) Treatments consisted of the acid or esters of 4-amino-3-chloro-5-fluoro-6-(4-chloro-2-fluoro-3-methoxy-phenyl)pyridine-2-carboxylic acid (compound A) each formulated as an SC (suspension concentrate) and various herbicidal components alone and in combination.
(§3) For formulated compounds, a measured amount was placed in an individual 100 or 200 mL glass vial and was dissolved in a volume of 1.25% (v/v) Agri-Dex® crop oil concentrate to obtain application solutions.
(§4) Applications were made by injecting with a pipetter appropriate amounts of the application solutions, individually and sequentially, into the aqueous layer of the paddy. Control plants were treated in the same manner with the solvent blank. Applications were made so that all treated plant material received the same concentrations of acetone and crop oil concentrate.
(§5) The treated plants and control plants were placed in a greenhouse as described above and water was added as needed to maintain a paddy flood. After approximately 3 weeks the condition of the test plants as compared with that of the untreated plants was determined visually and scored on a scale of 0 to 100 percent where 0 corresponds to no injury or growth inhibition and 100 corresponds to complete kill.
(§6) Colby's equation was used to determine the herbicidal effects expected from the mixtures (Colby, S. R. 1967. Calculation of the synergistic and antagonistic response of herbicide combinations. Weeds 15:20-22.).
(§7) The following equation was used to calculate the expected activity of mixtures containing two active ingredients, A and B: Expected=A+B−(A×B/100)

SCPJU [1] = assay: as above; format: in vivo, Schoenoplectus juncoides (Roxb.) Palla; conditions: in-water, 135 gai/ha
Protocol: as §1, §2, §3, §4, §5, §6, §7

ECHCG [2] = assay: Example I postemergence foliar-applied, greenhouse, direct seeded rice weeds; format: in vivo, Echinochloa crusgalli (L.) Beauv.
Description: (§8) Seeds or nutlets of the desired test plant species were planted in a soil matrix prepared by mixing a loam or sandy loam soil (e.g., 28.6 percent silt, 18.8 percent clay, and 52.6 percent sand, with a pH of about 5.8 and an organic matter content of about 1.8 percent) and calcareous grit in an 80 to 20 ratio. The soil matrix was contained in plastic pots with a volume of 1 quart and a surface area of 83.6 square centimeters (cm^2). When required to ensure good germination and healthy plants, a fungicide treatment and/or other chemical or physical treatment was applied. The plants were grown for 8-22 days in a greenhouse with an approximate 14 hr. photoperiod which was maintained at about 29° C. during the day and 26° C. during the night. Nutrients (Peters Excel® 15-5-15 5-Ca 2-Mg and iron chelate) were applied in the irrigation solution as needed and water was added on a regular basis. Supplemental lighting was provided with overhead metal halide 1000-Watt lamps as necessary. The plants were employed for testing when they reached the first through fourth true leaf stage.
(§9) Treatments consisted of the acid or esters of 4-amino-3-chloro-5-fluoro-6-(4-chloro-2-fluoro-3-methoxy-phenyl)pyridine-2-carboxylic acid (Compound A), each formulated as an SC (suspension concentrate), and various herbicidal components alone and in combination.
(§10) Other herbicidal components were applied on an acid equivalent (ae) or active ingredient (ai) basis and included acetyl coA carboxylase (ACCase)-inhibiting herbicides (cyclohexanedione and aryloxyphenoxypropionate chemical classes) cyhalofop-butyl formulated as Clincher® SF (285 gr ai/L EC), diclofop-methyl formulated as Hoelon® 3EC, fenoxaprop-p-ethyl+isoxadifen-ethyl formulated as RiceStar® HT (0.58 lb./gal EC), fenoxaprop-p-ethyl+mefenpyr diethyl formulated as Puma® IEC, metamifop formulated as Metamifop EC, haloxyfop-methyl formulated as Gallant Super®, fluazifop-p-butyl formulated as Fusilade® DX, quizalofop-p-ethyl formulated as Assure® II, profoxydim formulated as Aura® 20EC, clethodim applied as Intensity®, sethoxydim formulated as Poast®, and tralkoxydim formulated as Achieve®.
(§11) Treatment requirements were calculated based upon the rates being tested, the concentration of active ingredient or acid equivalent in the formulation, and a 12 mL application volume at a rate of 187 L/ha.
(§12) For treatments comprised of formulated compounds, measured amounts of compounds were placed individually in 25 mL glass vials and diluted in a volume of 1.25% (v/v) Agri-Dex® crop oil concentrated to obtain 12× stock solutions. […] Application solutions were prepared by adding an appropriate amount of each stock solution (e.g., 1 mL) and diluted to the appropriate final concentrations with the addition of 10 mL of an aqueous mixture of 1.25% (v/v) crop oil concentrate so that the final spray solutions contained 1.25+/−0.05% (v/v) crop oil concentrate.
(§13) All stock solutions and applications solutions were visually inspected for compound compatibility prior to application. Spray solutions were applied to the plant material with an overhead Mandel track sprayer equipped with a 8002E nozzles calibrated to deliver 187 L/ha over an application area of 0.503 m^2 at a spray height of 18 to 20 inches (46 to 50 cm) above average plant canopy height. Control plants were sprayed in the same manner with the solvent blank.
(§14) The treated plants and control plants were placed in a greenhouse as described above and watered by sub-irrigation to prevent wash-off of the test compounds. After approximately 3 weeks, the condition of the test plants as compared with that of the untreated plants was determined visually and scored on a scale of 0 to 100 percent where 0 corresponds to no injury or growth inhibition and 100 corresponds to complete kill. […]

ECHCG [3] = assay: Example II in-water applied, greenhouse, transplanted paddy rice weeds; format: in vivo, Echinochloa crusgalli (L.) Beauv.; conditions: 135 gai/ha
Protocol: as §4, §5, §6, §7

SCPJU [4] = assay: Example I postemergence foliar-applied, greenhouse, direct seeded rice weeds; format: in vivo, Schoenoplectus juncoides (Roxb.) Palla
Description: as §8, §9, §10, §11, §12, §13, §14

CYPES = assay: as above; format: in vivo, Cyperus esculentus L.
Description: as §8, §9, §10, §11, §12, §13, §14

LEFCH = assay: as above; format: in vivo, Leptochloa chinensis (L.) Nees; conditions: 112 gai/ha
Description: as §8, §9, §10, §11, §12, §13, §14

CYPDI = assay: as above; format: in vivo, Cyperus difformis L.
Description: as §8, §9, §10, §11, §12
All stock solutions and applications solutions were visually inspected for compound compatibility prior to application. […]
as §14

CYPIR = assay: as above; format: in vivo, Cyperus iria L.
Description: as §8, §9, §10, §11, §12, §13, §14

CCC/C(=N\OCC)C1=C(O)CC(CC(C)SCC)CC1=O (stereo not shown) [Sethoxydim, 2-[1-(ethoxyimino)butyl]-5-[2-(ethylthio)propyl]-3-hydroxy-2-cyclohexen-1-one]
60%: Visual Weed Control (%) - 21 DAA ECHCG Obs (ECHCG [3])
0%: Visual Weed Control (%) - 21 DAA SCPJU Obs (SCPJU [1]) | Visual Weed Control (%) - 22 DAA SCPJU Obs (SCPJU [4]; 67.5 gai/ha) | Visual Weed Control (%) - 22 DAA SCPJU Obs (SCPJU [4]; 135 gai/ha) | Visual Weed Control (%) - 22 DAA SCPJU Obs (SCPJU [4]; 270 gai/ha) | Visual Weed Control (%) - 22 DAA CYPES Obs (CYPES; 67.5 gai/ha) | Visual Weed Control (%) - 22 DAA CYPES Obs (CYPES; 135 gai/ha) | Visual Weed Control (%) - 22 DAA CYPES Obs (CYPES; 270 gai/ha) | Visual Weed Control (%) - 22 DAA CYPDI Obs (CYPDI; 67.5 gai/ha) | Visual Weed Control (%) - 22 DAA CYPDI Obs (CYPDI; 135 gai/ha) | Visual Weed Control (%) - 22 DAA CYPDI Obs (CYPDI; 270 gai/ha) | Visual Weed Control (%) - 22 DAA CYPIR Obs (CYPIR; 67.5 gai/ha) | Visual Weed Control (%) - 22 DAA CYPIR Obs (CYPIR; 135 gai/ha) | Visual Weed Control (%) - 22 DAA CYPIR Obs (CYPIR; 270 gai/ha)
50%: Visual Weed Control (%) - 21 DAA FIMMI Obs (FIMMI; 135 gai/ha)
30%: Visual Weed Control (%) - 21 DAA FIMMI Obs (FIMMI; 270 gai/ha) | Visual Weed Control (%) - 22 DAA ECHCG Obs (ECHCG [2]; 56 gai/ha)
70%: Visual Weed Control (%) - 22 DAA LEFCH Obs (LEFCH)
90%: Visual Weed Control (%) - 22 DAA ECHCG Obs (ECHCG [2]; 112 gai/ha)
